# Experimental data as given in patent publication US11260056B2, “Diaminopyrimidine P2X3 and P2X2/3 receptor modulators for use in the treatment of cough” (Afferent Pharmaceuticals, Inc., priority 2015, dated 2022).
# Legend:
# Type in all cases: in vivo, human
# [1] = system: treatment-resistant chronic cough patients; test: Double-blind randomized placebo-controlled crossover trial in idiopathic/treatment-resistant chronic cough; settings: 600 mg bd
# Description: Thus, the inventors explored the role of P2X3 receptors in the sensitization of vagal pathways mediating the cough reflex leading to chronic cough (CC). A study was performed to investigate the efficacy of oral administration of Compound 16 in reducing daytime cough in idiopathic/treatment-resistant chronic cough.
# In this study, a double-blind randomized placebo-controlled crossover trial, 24 subjects (19 women, mean age 55 yrs) were randomized into a double blind, placebo-controlled, 2-period, crossover study, of Compound 16, 600 mg bd. Cough was assessed using an ambulatory sound monitoring system at baseline and after 2 weeks of treatment; primary endpoint, daytime objective cough frequency (coughs/hr) (VitaloJAK™); secondary endpoints, cough severity and urge to cough (UTC) visual analogue scales (VAS), global ratings of change and cough quality of life questionnaire (CQLQ).
# [2] = Phase 1/Phase 2 clinical studies: safety, tolerability and pharmacokinetics after oral administration
# Description: Compound 16 has progressed to completion of 6 Phase 1 studies and 5 Phase 2 studies, with several studies in progress or soon to commence, and over 400 subjects dosed at least once with Compound 16. […] Studies in normal healthy volunteers have explored safety, tolerability and pharmacokinetics of Compound 16 following oral administration of doses from 10 mg to 1800 mg for up to 3 weeks. […] Plasma half-life falls in the range of 7-9 h, with steady state for BID dosing achieved after 3 doses.
# chronic cough patients = test: Phase 2b dose-escalation crossover study in chronic cough patients
# Description: Cough frequency was measured objectively utilizing a cough recording device, with periodic measurements following Compound 16 treatment compared to a baseline recording.
# The 29-patient randomized, double-blind, placebo controlled, Phase 2b crossover study was conducted at 10 clinical sites in the U.S. Patients were randomized to either Compound 16 or placebo arms. Those in the treatment group received Compound 16 50 mg, followed by a titration up to 100 mg, 150 mg and 200 mg, with each dose given twice daily for four days. Treatment period one was followed by a 3-5 day washout period. Patients were then crossed over to the alternate arm of the study and treated with either Compound 16 or placebo for 16 more days.
compound,measurement,setting,value
"COc1cc(C(C)C)c(Oc2cnc(N)nc2N)cc1S(N)(=O)=O [Compound 16, 5-(2,4-Diamino-pyrimidin-5-yloxy)-4-isopropyl-2-methoxy-benzenesulfonamide]","CQLQ (cough quality of life questionnaire), mean difference vs. placebo","[1]; 2 weeks, (−2 to −17), p=0.018",−9
same,"UTC (urge to cough) VAS, mean difference vs. placebo","[1]; 2 weeks, (−2 to −41), p=0.035",−21 mm
same,"cough severity VAS, mean difference vs. placebo","[1]; 2 weeks, (−10 to −42), p=0.003",−26 mm
same,"daytime coughs/hr, mean difference vs. placebo","[1]; after 2 weeks of treatment, 95% CI −50 to −88, p<0.001",−75%
same,patients who rated an improved cough,[1]; compared to 2/22 treated with placebo,13/24
same,reduction in objective daytime cough counts,[1]; patients with refractory chronic cough,75%
same,steady state for BID dosing achieved after,"[2]; human, oral BID dosing",3 doses
same,oral bioavailability,"[2]; human, based on % dose recovered in urine",appears to be high
same,Clinical safety,"[2]; over 400 subjects dosed at least once, 10 mg to 1800 mg",excellent
same,adverse events (AEs),"[2]; patients and healthy volunteers, dose-dependent, notable at higher dose levels",limited to oropharyngeal findings (hypogeusia)
same,half-life,"[2]; plasma, human, oral, immediate release formulation",420 to 540 min
same,incidence of decreased taste acuity,chronic cough patients; 50 mg dose versus 600 mg twice daily in the first study,much less at the 50 mg dose
same,tolerability,chronic cough patients; 50-200 mg twice daily,generally well tolerated
same,patients who discontinued treatment due to the taste effect,"chronic cough patients; at any dose, 29 patients",Only one patient discontinued treatment
